This is an account of results in ChEMBL document CHEMBL1144094, “Phenylethanoid glycosides from Globularia trichosantha” (J Nat Prod, 1999).

Active and inactive are the calls of the source. No cut-off for these calls is given here.

In this test the test system is Radical scavenging activity. The test can be described thus: Antioxidant activity assessed as DPPH free radical scavenging activity by TLC autographic assay. It is filed as functional. (In general: DPPH is a stable violet radical that fades when it is reduced.)
Consider `C[C@@H]1O[C@@H](O[C@@H]2[C@H]3O[C@@H](c4ccc(O)c(O)c4)CO[C@@H]3O[C@H](CO)[C@H]2OC(=O)/C=C/c2ccc(O)c(O)c2)[C@H](O)[C@H](O)[C@H]1O`, for which the outcome was Active. Consider `C[C@@H]1O[C@@H](O[C@@H]2[C@@H](O)[C@H](OCCc3ccc(O)c(O)c3)O[C@H](CO)[C@H]2OC(=O)/C=C/c2ccc(O)c(O)c2)[C@H](O)[C@H](O)[C@H]1O[C@@H]1O[C@H](CO)[C@@H](O)[C@H](O)[C@H]1O`, for which the result was Active. Then `C[C@@H]1O[C@@H](O[C@@H]2[C@@H](O)[C@H](OCCc3ccc(O)c(O)c3)O[C@H](CO)[C@H]2OC(=O)/C=C/c2ccc(O)c(O)c2)[C@H](O)[C@H](O)[C@H]1O[C@@H]1OC[C@@H](O)[C@H](O)[C@H]1O`, with “Active”; and `C[C@@H]1O[C@@H](O[C@@H]2[C@@H](O)[C@H](OCCc3ccc(O)c(O)c3)O[C@H](CO[C@@H]3OC[C@@H](O)[C@H](O)[C@H]3O)[C@H]2OC(=O)/C=C/c2ccc(O)c(O)c2)[C@H](O)[C@H](O)[C@H]1O[C@@H]1OC[C@@H](O)[C@H](O)[C@H]1O`, with “Active”; and `C[C@@H]1O[C@@H](O[C@@H]2[C@@H](O)[C@H](OCCc3ccc(O)c(O)c3)O[C@H](CO)[C@H]2OC(=O)/C=C/c2ccc(O)c(O)c2)[C@H](O)[C@H](O)[C@H]1O`, with “Active”.
